Assay results taken from patent publication US9161922B2, “Amine oxidase inhibitors” (Case Western Reserve University, priority 2005, dated 2015).
Where two headings read alike, the source gives them in different places.

What was measured:
Type in all cases: biochemical
[1] = target: pichia pastoris lysyl oxidase (PPLO) (Komagataella pastoris (Yeast) (Pichia pastoris), UniProt Q96X16); assay: Pichia pastoris lysyl oxidase inhibition; conditions: 30 min
Procedure: (§1) In the following Examples, 0.9 mL aliquots of a solution of candidate inhibitor in 100 mM potassium phosphate buffer, pH 7.2 was mixed bovine plasma amine oxidase (0.1 mL, about […]) and incubated at 30° C. aerobically. Aliquots (0.1 mL) were periodically withdrawn using disposable calibrated Drummond micropipettes and diluted with 1.0 mL of benzylamine (5 mM in 50 mM sodium phosphate buffer, pH 7.2) in a 1 cm quartz cuvette (1.5 mL volume). The rate of oxidation of benzylamine to benzaldehyde was measured by recording the increase in absorbance at 250 nm for 1 minute and compared to the rate of benzylamine oxidation in a companion control solution of enzyme without inhibitor. The concentration of active BPAO was estimated from the rate of benzylamine oxidation. Inhibitory potency values (IC50 values) and partition values for inactivation of BPAO were measured at various times as in indicated in the Tables. IC50 values for lysyl oxidase (LO), arthrobacter globoformis amine oxidase (AGAO) and pichia pastoris lysyl oxidase (PPLO) were also measured in a similar manner.

[2] = target: lysyl oxidase (LO) (Homo sapiens (Human), UniProt P28300); assay: Lysyl oxidase inhibition; conditions: for IC75: 20 min, assay performed at Boston University; for IC50 (BPAO)/IC75(LO): ratio BPAO over LO
lysyl oxidase (LO), sequence (P28300 169-417, species assumed): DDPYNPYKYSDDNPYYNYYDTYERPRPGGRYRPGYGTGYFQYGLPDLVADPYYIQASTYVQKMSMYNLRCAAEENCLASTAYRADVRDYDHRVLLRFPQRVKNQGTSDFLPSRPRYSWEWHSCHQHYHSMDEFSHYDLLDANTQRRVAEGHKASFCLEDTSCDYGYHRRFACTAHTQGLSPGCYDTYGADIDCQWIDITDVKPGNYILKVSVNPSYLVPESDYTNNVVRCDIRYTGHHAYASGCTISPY
Procedure: as §1

[3] = target: arthrobacter globiformis amine oxidase (AGAO) (Arthrobacter globiformis, UniProt P46881); assay: Arthrobacter globiformis amine oxidase inhibition
Procedure: as §1

[4] = target: bovine plasma amine oxidase (BPAO) (Bos taurus (Bovine), UniProt Q29437); assay: Inactivation of bovine plasma amine oxidase (benzylamine oxidation rate, absorbance at 250 nm)
bovine plasma amine oxidase (BPAO), sequence (Q29437 17-762): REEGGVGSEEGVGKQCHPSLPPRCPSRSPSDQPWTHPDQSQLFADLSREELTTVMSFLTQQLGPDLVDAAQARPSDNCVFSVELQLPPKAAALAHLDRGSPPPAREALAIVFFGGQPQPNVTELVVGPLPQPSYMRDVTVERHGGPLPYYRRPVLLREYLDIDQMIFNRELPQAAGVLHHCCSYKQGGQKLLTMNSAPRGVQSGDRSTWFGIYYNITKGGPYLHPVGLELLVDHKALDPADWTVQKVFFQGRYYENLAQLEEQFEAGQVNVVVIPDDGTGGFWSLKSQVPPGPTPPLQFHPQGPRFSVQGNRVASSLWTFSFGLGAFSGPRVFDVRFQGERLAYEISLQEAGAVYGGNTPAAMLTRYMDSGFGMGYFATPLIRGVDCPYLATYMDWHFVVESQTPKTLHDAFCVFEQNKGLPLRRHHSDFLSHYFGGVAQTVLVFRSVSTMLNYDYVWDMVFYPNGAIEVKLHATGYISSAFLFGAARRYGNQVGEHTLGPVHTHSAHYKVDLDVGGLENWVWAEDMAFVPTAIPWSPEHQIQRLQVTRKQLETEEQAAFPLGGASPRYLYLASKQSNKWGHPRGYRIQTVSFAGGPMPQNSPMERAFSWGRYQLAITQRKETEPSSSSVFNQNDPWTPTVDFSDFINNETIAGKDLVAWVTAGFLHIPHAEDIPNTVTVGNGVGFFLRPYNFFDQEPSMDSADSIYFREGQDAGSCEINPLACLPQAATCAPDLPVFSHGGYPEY
Procedure: The rate of oxidation of benzylamine to benzaldehyde was measured by recording the increase in absorbance at 250 nm for 1 minute and compared to the rate of benzylamine oxidation in a companion control solution of enzyme without inhibitor. The concentration of active BPAO was estimated from the rate of benzylamine oxidation. Inhibitory potency values (IC50 values) and partition values for inactivation of BPAO were measured at various times as in indicated in the Tables. IC50 values for lysyl oxidase (LO), arthrobacter globoformis amine oxidase (AGAO) and pichia pastoris lysyl oxidase (PPLO) were also measured in a similar manner.

pichia pastoris lysyl oxidase (PPLO), sequence (Q96X16 entry or part of it): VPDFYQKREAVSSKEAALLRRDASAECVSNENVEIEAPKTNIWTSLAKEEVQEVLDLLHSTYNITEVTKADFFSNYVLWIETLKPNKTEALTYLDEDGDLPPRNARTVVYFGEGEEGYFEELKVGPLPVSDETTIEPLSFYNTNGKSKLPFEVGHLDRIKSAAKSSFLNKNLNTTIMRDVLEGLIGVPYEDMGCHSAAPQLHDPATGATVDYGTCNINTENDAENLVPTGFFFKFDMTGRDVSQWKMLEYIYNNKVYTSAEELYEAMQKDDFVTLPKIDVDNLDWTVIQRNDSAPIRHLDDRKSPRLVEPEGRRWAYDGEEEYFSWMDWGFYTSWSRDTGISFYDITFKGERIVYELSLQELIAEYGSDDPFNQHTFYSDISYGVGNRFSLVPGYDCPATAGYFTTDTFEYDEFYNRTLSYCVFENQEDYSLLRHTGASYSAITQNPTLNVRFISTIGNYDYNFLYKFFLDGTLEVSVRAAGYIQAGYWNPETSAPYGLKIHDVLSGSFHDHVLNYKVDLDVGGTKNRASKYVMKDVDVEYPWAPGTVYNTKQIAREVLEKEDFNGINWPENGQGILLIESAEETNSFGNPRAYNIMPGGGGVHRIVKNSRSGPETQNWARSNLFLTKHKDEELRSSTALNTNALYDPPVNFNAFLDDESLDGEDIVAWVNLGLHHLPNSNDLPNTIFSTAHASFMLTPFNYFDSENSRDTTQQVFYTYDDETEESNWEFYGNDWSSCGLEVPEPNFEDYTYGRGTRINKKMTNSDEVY

SMILES	IC50 [1]	IC75 [2]	IC50 (BPAO)/IC75(LO) [2]	IC50 ([3]; determined on the basis of reversible competitive inhibition, read-out: IC50 (30 min) AGAO)	IC50 [4]	IC50 ([3]; 30 min)
CCN(CC)C(=O)C(N)CC#CCN (stereo not shown) [R = NEt2]	5000 µM	250 µM	40	7 µM	10000 µM	
NCC#CCC(N)C(=O)NCCc1ccccc1 (stereo not shown) [R = NHCH2CH2Ph]		450 µM	1.11		1800 µM	250 µM
CCOC(=O)CNC(=O)CNC(=O)C(N)CC#CCN (stereo not shown) [R = NHCH2CONHCH2COOEt]		650 µM	0.14		90 µM	3500 µM
